US12383692B2, “Systems and methods for synthesis of nitric oxide” (The General Hospital Corporation, priority 2014, dated 2025)

How the values were obtained:
Format in all cases: in vivo
[1] = tested on: anesthetized lamb with acute pulmonary hypertension due to U46619 infusion; assay: Continuous NO generation with respiratory system 10 (NO generator 14) in anesthetized lambs with U46619-induced pulmonary hypertension
Description: (§1) Animal studies were approved by the Institutional Animal Care and Use Committee of Massachusetts General Hospital (Boston, MA). Eight lambs (New England Ovis, Dover, NH) weighing 32±2 kg were studied. General anesthesia was induced with 5% inhaled isoflurane (1-chloro-2,2,2-trifluoroethyldifluromethyl ether, Baxter, Deerfield, IL) in oxygen delivered via a mask and then maintained with 1-4% isoflurane in 50% oxygen during surgery. After tracheal intubation, the lambs were instrumented with indwelling carotid artery pulmonary artery catheters. All hemodynamic measurements were performed in anesthetized lambs ventilated with a mechanical ventilator (model 7200, Puritan Bennett, Pleasanton, CA) at a tidal volume of […] and rate of 12-15 breaths/min.
(§2) To induce pulmonary hypertension, a potent pulmonary vasoconstrictor U46619 (Cayman Chemical, Ann Arbor, MI), the analog of the endoperoxide prostaglandin H2, was infused intravenously at a rate of 0.8-0.9 μg/kg/min to increase pulmonary arterial pressure (PAP) to 30 mmHg. The mean arterial pressure and PAP were continuously monitored using a Gould 6600 amplifier system (Gould Electronics, Inc., Eastlake, OH). Pulmonary capillary wedge pressure, heart rate, and cardiac output were intermittently measured at baseline, during U46619 infusion, and before and after inhalation of NO generated using either the respiratory system 10, the respiratory system 100, or NO delivered and diluted at the same level from a compressed gas cylinder. Cardiac output was assessed by thermal dilution as the average of three measurements after an intravenous bolus injection of 10 mL of ice-cold saline solution. Pulmonary vascular resistance index (PVRI), as well as cardiac index (CI), were calculated using standard formulae. The gas cylinder contained 500 ppm NO diluted in nitrogen.
The respiratory system 10 was tested with an anesthetized lamb as the patient 11. A baseline (BL) was generated then the NO generator 14 of the respiratory system 10 was triggered to continuously spark (i.e., generate NO) after […] was administered for 30 minutes. The NO was pumped at 5 L/min into the inspiratory line 18. The electrodes 36 were fabricated from iridium-platinum. Once triggered, the controller 33 was configured to spark the electrodes 36 for 4 minutes using the following settings: B=35, N=25, P=240 μs; and H=100 μs, which produced approximately 40 ppm of NO, and then the controller 33 stopped the NO generator 14. The test was performed when 21% oxygen was supplied to the inlet 24 of the NO generator 14, when 50% oxygen was supplied to the inlet 24 of the NO generator 14, and compared with NO supplied at the same concentration to the anesthetized lamb from a gas cylinder. […]

[2] = tested on: anesthetized lamb with acute pulmonary hypertension; assay: Continuous NO generation with respiratory system 100 (NO generator 102) in anesthetized lambs with U46619-induced pulmonary hypertension
Description: as §1, §2
The respiratory system 100 was tested with an anesthetized lamb as the patient 11. A baseline (BL) was generated then the NO generator 102 of the respiratory system 100 was triggered to continuously spark (i.e., generate NO) after U46619 was administered for 30 minutes. The electrodes 36 were fabricated from iridium-platinum. Once triggered, the controller 33 was configured to spark the electrodes 36 for 4 minutes using the following settings: B=35, N=25, P=240 μs; and H=100 μs, which produced approximately 40 ppm of NO, and then the controller 33 stopped the NO generator 102. The test was performed when 21% oxygen was supplied in the inspiratory line 18, when 50% oxygen was supplied in the inspiratory line 18, and when NO was supplied to the anesthetized lamb diluted from a compressed gas cylinder.
Also, the reduction in PAP and PVRI for the NO produced by the NO generator 102 was similar to the reduction in PAP and PVRI for the NO supplied by the gas cylinder. […]

[3] = tested on: anesthetized lamb with acute pulmonary hypertension; assay: Intermittent NO generation with respiratory system 100 (NO generator 102) in anesthetized lambs with U46619-induced pulmonary hypertension; conditions: 4 minutes
Description: as §1, §2
The respiratory system 100 was tested with an anesthetized lamb as the patient 11. A baseline (BL) was generated then the NO generator 102 of the respiratory system 100 was triggered to intermittently spark (i.e., generate NO) after U46619 was administered for 30 minutes. The electrodes 36 were fabricated from iridium-platinum. The controller 33 was configured to spark the electrodes 36 only during the first 0.8 seconds of inspiration for 4 minutes using the following settings: B=35, N=25, P=240 μs; and H=100 μs and then the controller 33 stopped the NO generator 102, The test was performed when 21% oxygen was supplied in the inspiratory line 18, when 50% oxygen was supplied in the inspiratory line 18, and when NO was supplied to the anesthetized lamb from a gas cylinder.
Also, the reduction in PAP and PVRI for the NO produced by the NO generator 102 was similar to the reduction in PAP and PVRI for NO supplied and diluted from the compressed gas cylinder. […]

[4] = NO produced by NO generator 14, continuous sparking, 4 minutes
[5] = inhaled NO approximately 40 ppm continuously produced by NO generator 14 for 4 minutes, breathing 21% and 50% oxygen
[6] = NO produced by NO generator 102, continuous sparking, 4 minutes
[7] = inhaled NO approximately 40 ppm continuously produced inline by NO generator 102 for 4 minutes, breathing 21% and 50% oxygen
[8] = NO produced by NO generator 102, intermittent sparking
[9] = NO produced by NO generator 102 only during first 0.8 seconds of inspiration, breathing 21% and 50% oxygen

## [N]=O [NO, nitric oxide]
[1]; [4]
  reduction in PAP compared with NO supplied at the same level by dilution from the gas cylinder: similar
  reduction in PVRI compared with NO supplied at the same level by dilution from the gas cylinder: similar
[1]; [5]
  mean pulmonary artery pressure (PAP): rapidly reduced
  pulmonary vascular resistance index (PVRI): rapidly reduced
[2]; [6]
  reduction in PAP compared with NO supplied by the gas cylinder: similar
  reduction in PVRI compared with NO supplied by the gas cylinder: similar
[2]; [7]
  mean pulmonary artery pressure (PAP): rapidly reduced
  pulmonary vascular resistance index (PVRI): rapidly reduced
[3]; [8]
  reduction in PAP compared with NO supplied and diluted from the compressed gas cylinder: similar
  reduction in PVRI compared with NO supplied and diluted from the compressed gas cylinder: similar
[3]; [9]
  mean pulmonary artery pressure (PAP): rapidly reduced
  pulmonary vascular resistance index (PVRI): rapidly reduced
